In PubChem BioAssay (NCI) one finds TGI data, which are given here for ten compounds.

Holding throughout (assay): NCI anticancer screen, dose series, 48 h
The test system of test [1] is A498 renal.
Test [2] relates to NCI-H460 lung.
Test [3] concerns SF-295 CNS.
Test [4] deals with MDA-MB-231 breast.
Test [5] concerns MDA-MB-435.
Test [6] has as its system MDA-N.
Test [7] relates to HCT-15 colon.
Test [8] relates to HT29 colon.
Test [9] has as its system IGROV1 ovarian.
The test system of test [10] is SW-620 colon.
Test [11] deals with DU-145 prostate.
Test [12] deals with RXF 393 renal.
The subject of test [13] is T-47D breast.
Test [14] concerns U251 CNS.
The subject of test [15] is EKVX NSCLC.
Test [16] deals with NCI-H226 lung.

Each structure is given as a SMILES string.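 Compound exposure: 48 hours, 5 concentrations, 96-well plates. At the TGI there is no net growth.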

With `O=C1C2C(C(=O)N1c1ccccc1)C1(c3ccccc3)CCC2(C(=O)c2ccccc2)O1` (configuration not stated), the TGI in test [1], in [2], in test [3], in test [4], in [5] and in [6] was above 10 µM in each case. Moreover, the TGI in [7], in test [8], in test [9], in [10], in [11] and in [12] was above 10 µM each time. The TGI in [13], in test [14] and in [15] was above 10 µM each time.

On to `COc1ccc(C(=O)C#Cc2cn(C3CC(O)C(CO)O3)c(=O)[nH]c2=O)cc1` (configuration not stated), for which the TGI in test [2], in test [3], in test [4], in [5], in test [6] and in test [7] was above 100 µM in each case. Further, the TGI in test [8], in test [16], in [9], in test [10], in test [11] and in test [12] was above 100 µM in each case. Besides, the TGI in [13] is 35.4 µM; in test [14], above 100 µM; in test [15], above 100 µM.

Take `Cc1ccc(CC(Cc2ccccc2C)C(=O)O)c(C(=O)O)c1` (configuration not stated): the TGI in [1], in test [2], in [3], in [4], in test [5] and in [6] was above 100 µM in each case. The TGI in test [7], in test [8], in test [16], in test [9], in test [10] and in test [11] was above 100 µM in each case. Besides, the TGI in test [12], in [14] and in [15] was above 100 µM in each case.

Regarding `CO/C=C/C=C(\C#N)C(=O)OC`, the TGI in test [1], in test [2], in [3], in test [4], in [5] and in test [6] was above 100 µM in each case. In addition, the TGI in test [7], in [8], in test [16], in test [9], in test [10] and in test [11] was above 100 µM throughout. In addition, the TGI in test [13], in test [14] and in [15] was above 100 µM throughout.

As for `COc1ccc(C(CC2(c3ccc(OC)cc3)SCCCS2)NC(C)=O)cc1` (configuration not stated), the TGI in test [1], in [2], in test [3], in test [4], in [5] and in test [6] was above 100 µM throughout. Further, the TGI in test [7], in [8], in [9], in test [10], in test [11] and in test [12] was above 100 µM throughout. The results for the TGI in test [13], in test [14] and in test [15] were 66.5 µM, above 100 µM and above 100 µM, respectively.

In the case of `N#CC12C(=O)NC(=O)C1(C#N)C1C=CC2CC1` (configuration not stated), the TGI in test [3], in [5], in test [6], in test [7], in test [8] and in [16] was above 100 µM in each case. Also, the TGI in test [10], in test [11], in [12], in test [13], in test [14] and in [15] was above 100 µM in each case.

For the compound `Cc1c(C)c2ccc(OCC(O)COC(C)C)c(C)c2oc1=O` (configuration not stated), the TGI in [2] was 34.6 µM; in [3] it was above 100 µM; in test [6], 33 µM; in [8], above 100 µM; in test [9], above 100 µM; in test [10], 93.1 µM. For the same compound, the TGI is above 100 µM in test [11], above 100 µM in [13], 33.8 µM in test [14] and above 100 µM in test [15].

With `Cc1ccc(C)n1-c1ccccc1C1C=Cn2c(=O)nnc3c(OC(C)C)c(OC(C)C)c(O)c1c32` (configuration not stated), the TGI is above 100 µM in test [1]; above 100 µM in test [2]; above 100 µM in [3]; above 100 µM in test [4]; 58.5 µM in test [5]; above 100 µM in test [6]. Also, the TGI in test [7] is 60.4 µM; in [8] it was 43.6 µM; in test [16] it was 53.6 µM; in [9] it was above 100 µM; in test [10] it was 42.3 µM; in [11] it was above 100 µM. The TGI in test [12] was 77.3 µM; in test [14] it was above 100 µM; in test [15] it was above 100 µM.

`O=c1nc2n3c4c(cccc4nc-2c(=O)[nH]1)CCC3`: the TGI in test [2], in [3], in test [4], in test [5], in test [6] and in [7] was above 100 µM in each case. Moreover, the TGI in test [8], in test [16], in [9], in test [10], in [11] and in test [12] was above 100 µM throughout. Also, the TGI in test [13], in [14] and in [15] was above 100 µM throughout.

As to `COc1ccc2c3c1OC1C(F)C=CC4(O)C(C2)NCCC314` (configuration not stated), the TGI came out at 15.6 µM in [1]; 21.4 µM in [2]; 21.9 µM in test [3]; 12.7 µM in [4]; 3.34 µM in [5]; 11 µM in test [6]. Moreover, the TGI amounted to 11.1 µM in test [7]; 10.9 µM in test [8]; 30.8 µM in test [16]; 20.3 µM in test [9]; 7.71 µM in [10]; 9.71 µM in test [11]. Besides, the TGI stood at 7.98 µM in [12], 6.59 µM in test [14] and 11 µM in [15].
